From US20030083271A1, “Topoisomerase I selective cytotoxic sugar derivatives of indolopyrrolocarbazoles” (priority 2001, published 2003)
Marks after values point to notes of the source that are not given here.

How the values were obtained:
HCT-116 colon carcinoma = experiment: In vivo antitumor activity, HCT-116 xenograft; set-up: species or system Balb/c athymic (nude) female mice; details: for LCK (gross log cell kill): HT116 sc xenograft in nude mice, at optimal or maximum tolerated dose, CPT-11 run as comparator in same experiment; for MTD (optimal or maximum tolerated dose level tested): HT116 xenograft experiment, nude mice
Method: Compounds: Examples of this invention were administered in an appropriate vehicle such as cremophor/ethanol/water (10%/10%/80%), in normal saline, water/carboxymethylcellulose vehicle.
All compounds were tested at several dose levels, with attempts each time to achieve their maximum tolerated dose (MTD). […] The optimal dose (OD) was the dose producing the best therapeutic effect, and was usually, but not always, synonymous with the MTD.
Tumors: Human tumors (HCT-116 and HT-29 colon carcinomas) were grown as xenografts in Balb/c athymic (nude) female mice. Antitumor assays. All tumors were implanted subcutaneously (sc) as 3-4mm fragments using a 13 gauge trochar. There were generally eight mice per treatment and control group. When treatment was delayed until tumors had obtained a certain size (weight), referred to as a staged tumor experiment (expt.), tumor-bearing mice were selected so that their tumors fell within a limited range of sizes for the particular expt.
Tumors were measured by calipers, and tumor weight calculated by the formula length (mm) times (×) width (mm)^2/2=tumor weight (mg). The median time (in days) to reach a predetermined tumor target size (for example, 500 mg) for untreated, control (C) mice relative to the time to reach the same target size for treated (T) mice, was calculated as a T-C value. T-C values were divided by the tumor volume doubling time (TVDT), and multiplied by 3.32, to yield a gross log cell kill (LCK) value, [i.e., (T-C)/TVDT×3.32=LCK].
A mouse was considered cured if there was no palpable tumor after a period of time equal to 10×TVDT post-reatment (Rx).

[1] = test system: P388 murine leukemia cells; experiment: In vitro cell-based cytotoxicity, parental P388 cells; details: Mus musculus, 72 h, median cytotoxic concentration, 3 days continuous exposure
Procedure, shortened: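 P388 cells plated at 8,000 cells/well, compounds serially diluted 24 h later and incubated 72 h at 37° C. Viability by MTS (333 μg/ml final) with phenazine methosulfate (25 μM final), absorbance at 492 nm; IC50 is concentration reducing absorbance to 50% of untreated control.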

P388/CPT45 cells = experiment: Cytotoxicity in camptothecin-resistant P388/CPT45 cells relative to parental P388 (selectivity index R/S); type: cell-based, murine; details: IC50 P388/CPT45 cells divided by IC50 parental P388 cells
Procedure, shortened: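 Murine P388 leukemia cells and their camptothecin-resistant P388/CPT45 subline were plated at 8,000 cells/well and exposed to serial compound dilutions for 72 h at 37 °C. Viability was read by MTS/PMS reduction at 492 nm, with IC50 taken against untreated cells. R/S is the P388/CPT45 IC50 divided by the parental P388 IC50.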

O=C1NC(=O)c2c1c1c3cc(F)c(F)cc3sc1c1c2c2cc(F)c(F)cc2n1[C@@H]1O[C@H](CO)[C@@H](F)[C@H](O)[C@H]1O [Example 33, 12-[4-Deoxy-4-fluoro-β-D-glucopyranosyl]-2,3,9,10-tetrafluoro-5H,13H-benzo[b]thienyl[2,3-a]pyrrolo[3,4-c]carbazole-5,7(6H)-dione]
LCK (gross log cell kill) (HCT-116 colon carcinoma): 2.3
MTD (optimal or maximum tolerated dose level tested) (HCT-116 colon carcinoma): 10 mpkpi
IC50 [1]: < 3 nM
Selectivity Index R/S (P388/CPT45 cells): >1657.6

O=C1NC(=O)c2c1c1c3cc(F)ccc3[nH]c1c1c2c2cc(F)ccc2n1[C@@H]1O[C@H](CF)[C@@H](F)[C@H](O)[C@H]1O [Example 27]
LCK (gross log cell kill) (HCT-116 colon carcinoma): >1.4^c
MTD (optimal or maximum tolerated dose level tested) (HCT-116 colon carcinoma): 8 mpkpi
IC50 [1]: 4 nM
Selectivity Index R/S (P388/CPT45 cells): 448.4

O=C1NC(=O)c2c1c1c3cc(F)c(F)cc3sc1c1c2c2cc(F)c(F)cc2n1[C@@H]1O[C@H](CF)[C@@H](F)[C@H](O)[C@H]1O [Example 26, 12-[4,6-Difluoro-4,6-dideoxy-β-D-glucopyranosyl]-2,3,9,10-tetrafluoro-5H, 13H-benzo[b]thienyl[2,3-a]pyrrolo[3,4-c]carbazole-5,7(6H)-dione]
LCK (gross log cell kill) (HCT-116 colon carcinoma): >3.4
MTD (optimal or maximum tolerated dose level tested) (HCT-116 colon carcinoma): >9 mpkpi
IC50 [1]: 11 nM
Selectivity Index R/S (P388/CPT45 cells): 387.8

O=C1NC(=O)c2c1c1c3cc(F)c(F)cc3sc1c1c2c2cc(F)c(F)cc2n1[C@@H]1O[C@H](CF)C[C@H](O)[C@H]1O [Example 9, 12-[4,6-Dideoxy-6-fluoro-β-D-glucopyranosyl]-2,3,9,10-tetrafluoro-5H, 13H-benzo[b]thienyl[2,3-a]pyrrolo[3,4-c]carbazole-5,7(6H)-dione]
LCK (gross log cell kill) (HCT-116 colon carcinoma): >3.4
MTD (optimal or maximum tolerated dose level tested) (HCT-116 colon carcinoma): >22 mpkpi
IC50 [1]: 35 nM
Selectivity Index R/S (P388/CPT45 cells): 120.2

O=C1NC(=O)c2c1c1c3cc(F)ccc3[nH]c1c1c2c2cc(F)ccc2n1[C@@H]1O[C@H](CO)[C@@H](F)[C@H](O)[C@H]1O [Example 24, 12-[4-Deoxy-4-fluoro-β-D-glucopyranosyl]-3,9-difluoro-12,13-dihydro-5H-indolo[2,3-a]pyrrolo[3,4-c]carbazole-5,7(6H)-dione]
LCK (gross log cell kill) (HCT-116 colon carcinoma): 1.3
MTD (optimal or maximum tolerated dose level tested) (HCT-116 colon carcinoma): 10 mpkpi
IC50 [1]: 2 nM
Selectivity Index R/S (P388/CPT45 cells): 379.0
